Where two headings read alike, the source gives them in different places.

This is an account of results in patent publication US7087623B2, “Thiazole and other heterocyclic ligands for mammalian dopamine, muscarinic and serotonin receptors and transporters, and methods of use thereof” (Sepracor Inc., priority 2001, dated 2006).

In data set [1] the target is T1, human dopamine D3 receptor (Homo sapiens, UniProt P35462).
T1 construct: expressed in transfected cells; host or cells: CHO
Briefly: Radioligand binding assay, human dopamine D3 receptors ([3H]Spiperone).

The subject of a further data set is Wistar rats. Description: Acute toxicity assessment (maximum tolerated dose) in Wistar rats, i.v. Type of data set: in vivo. Particulars: observed 72 hours. On the procedure:
An in vivo evaluation was carried out to determine the maximum tolerated dose of certain compounds in Wistar rats (male and female weighing ˜[…]). The compounds were administered i.v. and the animals were then observed for 72 hours. Compounds 37, 93, and 112 were solubilized in 5% dextrose (w/v)/polyethylene glycol 400 (4:1 v/v).

Data set [2] deals with T2, human muscarinic M3 receptor (Homo sapiens, UniProt P20309).
T2 construct: expressed in transfected cells; host or cells: BSR-M3H
T2 sequence (P20309 whole entry): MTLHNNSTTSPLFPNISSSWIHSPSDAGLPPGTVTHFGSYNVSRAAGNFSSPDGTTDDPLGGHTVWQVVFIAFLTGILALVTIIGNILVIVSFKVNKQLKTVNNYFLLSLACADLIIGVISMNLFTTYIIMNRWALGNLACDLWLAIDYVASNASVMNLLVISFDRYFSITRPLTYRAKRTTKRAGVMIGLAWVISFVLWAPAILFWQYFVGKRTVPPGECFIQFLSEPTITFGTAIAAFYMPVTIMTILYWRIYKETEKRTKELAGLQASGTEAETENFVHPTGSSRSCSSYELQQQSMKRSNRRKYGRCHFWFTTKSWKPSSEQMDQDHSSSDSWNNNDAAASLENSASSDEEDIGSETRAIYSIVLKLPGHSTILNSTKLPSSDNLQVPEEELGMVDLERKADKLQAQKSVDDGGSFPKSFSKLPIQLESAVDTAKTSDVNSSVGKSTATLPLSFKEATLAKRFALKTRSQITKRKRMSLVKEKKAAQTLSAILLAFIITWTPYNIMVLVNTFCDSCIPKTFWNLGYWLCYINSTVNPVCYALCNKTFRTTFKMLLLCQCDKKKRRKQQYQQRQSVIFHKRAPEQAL
Briefly: Binding to human muscarinic M3 receptors ([3H]N-methylscopolamine). The protocol:
This assay measures binding of [^3H]N-methylscopolamine to human muscarinic M3 receptors. BSR-M3H cells transfected with a plasmid encoding the human muscarinic M3 receptor were used to prepare membranes in modified Tris-HCl pH 7.4 buffer using standard techniques. A 5 μg aliquot of membrane was incubated with 0.29 nM [^3H]N-methylscopolamine for 60 minutes at 25° C. Non-specific binding was estimated in the presence of 1 μM atropine. Membranes were filtered and washed 3 times and the filters were counted to determine [^3H]N-methylscopolamine specifically bound. See Buckley, N. J., Bonner, T. I., Buckley, C. M. and Brann, M. R. Antagonist binding properties of five cloned muscarinic receptors expressed in CHO-K1 cells. Mol. Pharmacol. 35: 469–476, 1989.
The human 5-HT2a and 5-HT2b screens were conducted according to Bonhaus, D. W. et al. Br. J. Pharmacol. 1995, 115, 622. The human […], W. A. et al. J. Neurochem. 1997, 69, 1449. The human 5-HT6 screen was conducted according to Monsama, F. J. et al. Mol. Pharmacol. 1993, 43, 320. The assay to human D3 receptors was conducted according to Sokoloff, P. et al. Nature 1990, 347;146. The human dopamine transporter assay was conducted according to Gu, H. et. al. J. Biol. Chem. 1994, 269 (10);7124; and Giros, B. et al. Trends. Pharmacol. Sci. 1993, 14: 43. The human muscarinic M1–M4 screens were conducted according to Buckley N. J. et al. Mol. Pharmacol. 1989, 35:469.
The human dopamine transporter assay was conducted according to Gu, H. et. al. J. Biol. Chem. 1994, 269 (10);7124 and Giros, B. et al. Trends. Pharmacol. Sci. 1993, 14: 43. The human muscarinic M1–M4 screens were conducted according to Buckley N. J. et al. Mol. Pharmacol. 199, 35:469

In data set [3] the target is T3, human serotonin 5-HT6 receptor (Homo sapiens, UniProt P50406).
T3 construct: expressed in transfected cells; host or cells: HeLa/E6-7
T3 sequence (P50406 whole entry): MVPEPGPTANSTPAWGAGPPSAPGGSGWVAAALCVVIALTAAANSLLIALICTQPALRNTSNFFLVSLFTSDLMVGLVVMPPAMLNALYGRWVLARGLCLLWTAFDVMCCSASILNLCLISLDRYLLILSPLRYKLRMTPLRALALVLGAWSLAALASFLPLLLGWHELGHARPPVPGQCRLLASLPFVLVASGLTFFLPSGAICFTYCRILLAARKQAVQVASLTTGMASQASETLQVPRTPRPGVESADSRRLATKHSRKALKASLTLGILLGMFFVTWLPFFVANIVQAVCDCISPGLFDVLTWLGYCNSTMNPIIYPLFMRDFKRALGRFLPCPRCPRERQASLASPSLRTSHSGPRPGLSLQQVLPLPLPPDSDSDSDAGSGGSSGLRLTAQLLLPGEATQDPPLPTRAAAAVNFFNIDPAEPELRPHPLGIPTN
Description: Radioligand binding assay, human 5-HT6 receptors ([3H]LSD). The method in brief: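 Membranes from HeLa/E6–7 cells stably expressing human 5-HT6, in modified Tris-HCl pH 7.4, incubated (30 μg) with 1.5 nM [3H]LSD for 120 min at 37° C. Non-specific binding defined with 5 μM 5-HT; bound ligand measured by filtration and counting.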

Data set [4] has as its target T4, human dopamine transporter (Homo sapiens, UniProt Q01959).
T4 construct: expressed in transfected cells; host or cells: CHO-K1
Description: Binding to human dopamine transporter ([125I]RTI-55). The protocol:
CHO-K1 cell membranes stably transfected with a plasmid encoding the human dopamine transporter were prepared in modified Tris-HCl pH 7.4 buffer using standard techniques. […] Non-specific binding was estimated in the presence of 10 μM nomifensine. […] Trends. […]

[5] abbreviates: Example 20 table, read-out: IC50 (nM) Against Human D3 Receptors.
The mark [6] stands for this setting: human, Example 101 table, read-out: IC50 (nM) M3.
[7] abbreviates: human 5-HT6, Example 16 table, read-out: IC50 (nM) 5-HT6.
The mark [8] stands for this setting: human, Example 101 table, read-out: IC50 (nM) DAT.
Where [9] appears, read: human, Example 100 table, read-out: IC50 (nM) D3.
The mark [10] stands for this setting: human, Example 100 table, read-out: IC50 (nM) M3.
The mark [11] stands for this setting: human, Example 100 table, read-out: IC50 (nM) 5-HT6.
Where [12] appears, read: human, Example 100 table, read-out: IC50 (nM) DAT.

T1 sequence (P35462 whole entry): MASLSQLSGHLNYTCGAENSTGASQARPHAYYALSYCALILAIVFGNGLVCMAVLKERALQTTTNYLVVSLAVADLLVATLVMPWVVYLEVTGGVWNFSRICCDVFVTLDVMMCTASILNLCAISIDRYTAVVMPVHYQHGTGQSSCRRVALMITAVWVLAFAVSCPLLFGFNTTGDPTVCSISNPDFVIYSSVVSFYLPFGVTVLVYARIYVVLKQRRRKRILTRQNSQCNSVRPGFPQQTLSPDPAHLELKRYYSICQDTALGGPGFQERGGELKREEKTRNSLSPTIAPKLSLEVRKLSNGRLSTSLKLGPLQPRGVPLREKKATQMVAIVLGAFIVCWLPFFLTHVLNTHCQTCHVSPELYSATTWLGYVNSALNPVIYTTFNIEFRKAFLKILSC
T4 sequence (Q01959 whole entry): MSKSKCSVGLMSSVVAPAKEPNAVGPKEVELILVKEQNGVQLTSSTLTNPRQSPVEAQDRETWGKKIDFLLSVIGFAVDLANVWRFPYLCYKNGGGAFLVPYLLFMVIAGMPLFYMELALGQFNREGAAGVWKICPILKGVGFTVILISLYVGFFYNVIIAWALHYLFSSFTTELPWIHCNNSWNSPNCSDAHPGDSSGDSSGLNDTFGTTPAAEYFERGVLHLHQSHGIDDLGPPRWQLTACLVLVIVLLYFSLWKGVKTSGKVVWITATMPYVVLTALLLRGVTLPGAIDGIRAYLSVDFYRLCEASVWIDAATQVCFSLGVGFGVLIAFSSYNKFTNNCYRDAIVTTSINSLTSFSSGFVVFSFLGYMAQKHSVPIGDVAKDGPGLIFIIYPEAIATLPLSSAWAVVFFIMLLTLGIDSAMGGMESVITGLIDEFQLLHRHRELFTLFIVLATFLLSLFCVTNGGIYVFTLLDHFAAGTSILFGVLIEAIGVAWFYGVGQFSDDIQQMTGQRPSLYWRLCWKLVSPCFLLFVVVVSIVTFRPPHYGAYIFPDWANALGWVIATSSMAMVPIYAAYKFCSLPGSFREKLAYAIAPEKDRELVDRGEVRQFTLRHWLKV

As for `Clc1ccc(C2(c3csc(N4CCNCC4)n3)CCOCC2)cc1` [Compound 37], the IC50 in data set [1] (setting [5]) is less than 1000 nM; in data set [2] (setting [6]), less than 500 nM; in data set [3] (setting [7]), less than 100 nM; in data set [4] (setting [8]), more than 1000 nM. For the same compound, the “Tolerability and mortality after 72 h” value in the data set with Wistar rats (60 mg/kg i.v.) is “well tolerated by the animals and did not cause any mortality”.
With `CN1CCCC1CCNc1nc(C2(c3ccccc3F)CCCCC2)cs1` (racemic) [Compound 128, {4-[1-(2-fluorophenyl)-cyclohexyl]-thiazol-2-yl}-[2-(1-methyl-pyrrolidin-2-yl)-ethyl]-amine], the IC50 is less than 100 nM in data set [1] (setting [9]), less than 1000 nM in data set [2] (setting [10]), less than 100 nM in data set [3] (setting [11]) and more than 1000 nM in data set [4] (setting [12]).
For `CN1CCN(c2nc(C3(c4ccccc4F)CCOCC3)cs2)CC1` [Compound 112], the IC50 in data set [1] (setting [9]) is less than 1000 nM; in data set [2] (setting [10]), more than 1000 nM; in data set [3] (setting [11]), less than 100 nM; in data set [4] (setting [12]), more than 1000 nM. In addition, in the data set on Wistar rats (30 mg/kg i.v.), the “Tolerability and mortality after 72 h” value is “well tolerated by the animals and did not cause any mortality”.
For the compound `CN1CCN(c2nc(C3(c4cccc(Cl)c4)CCOCC3)cs2)CC1` [Compound 63], the IC50 in data set [1] (setting [5]) was less than 1000 nM; in data set [2] (setting [6]), more than 1000 nM; in data set [3] (setting [7]), less than 100 nM; in data set [4] (setting [8]) it was more than 1000 nM.
With `CN1CCCC1CCNc1nc(C2(c3ccccc3F)CCCCC2)cs1` (single isomer, unassigned) [Compound 130, {4-[1-(2-fluorophenyl)-cyclohexyl]-thiazol-2-yl}-[2-(1-methyl-pyrrolidin-2-yl)-ethyl]-amine], the IC50 in data set [1] (setting [9]) was less than 100 nM; in data set [2] (setting [10]), less than 1000 nM; in data set [3] (setting [11]), less than 100 nM; in data set [4] (setting [12]), more than 1000 nM.
Consider `CN1CCN(c2nc(C3(c4csc5ccc(Cl)cc45)CCOCC3)cs2)CC1` [Compound 36], for which the IC50 in data set [1] (setting [5]) is less than 1000 nM; in data set [2] (setting [6]) it was more than 1000 nM; in data set [3] (setting [7]), less than 100 nM; in data set [4] (setting [8]), more than 1000 nM.
On to `CN1CCN(c2nc(C3(c4ccccc4F)CCCC3)cs2)CC1` [Compound 93], for which the IC50 in data set [1] (setting [5]) is less than 1000 nM; in data set [2] (setting [6]), less than 100 nM; in data set [3] (setting [7]), less than 100 nM; in data set [4] (setting [8]) it was more than 1000 nM. Besides, the “Tolerability and mortality after 72 h” value in the data set on Wistar rats (60 mg/kg i.v.) was “well tolerated by the animals and did not cause any mortality”.
Consider `CN1CCN(c2nc(C3(c4ccccc4F)CCCCC3)cs2)CC1` [Compound 83], for which the IC50 in data set [1] (setting [5]) is less than 100 nM; in data set [2] (setting [6]), less than 500 nM; in data set [3] (setting [7]), less than 100 nM; in data set [4] (setting [8]), more than 1000 nM.
In the case of `CN1CCN(c2nc(C3(c4ccccc4)CCOCC3)cs2)CC1` [Compound 59], the IC50 in data set [1] (IC50 (nM) Against Human D3 Receptors, Example 20 table) is more than 1000 nM; in data set [2], more than 1000 nM; in data set [3] (IC50 (nM) 5-HT6, human 5-HT6, Example 16 table), less than 100 nM; in data set [4], more than 1000 nM.

One may read the IC50 as the concentration that gives 50% inhibition.
